Read-outs that look alike come from different tables or passages of the source.

The values that follow come from paper PMC5736629, “Allosteric modulation of protein-protein interactions by individual lipid binding events” (Nature Communications, 2017).

One test deals with GlnK. On the set-up: method as in earlier work. The following applies: 298K, absence of detergent, ref 2 (supplement), cited from earlier work.
For the next test, the target named is T1, AmtB (Escherichia coli, UniProt P69681).
T1 construct: pelB signal peptide (N, cleaved yes); 10x His-tag (N, cleaved yes); made in house; host or cells: Escherichia coli C41(DE3), pET15b
The experiment in a line: Native MS lipid titration, lipid binding to AmtB (equilibrium-coupled binding model). The following applies: 50 µM ADP, 298 K. On the procedure:
(§1) A stock of ADP was prepared by dissolving the ammonium salt form of ADP in water followed by adjusting the pH with ammonium hydroxide to 7.0. Serial dilutions into MS buffer (200 mM ammonium acetate, 0.5% C8E4, and pH adjusted to 7.4 with ammonium hydroxide) supplemented with 5 mM BME was performed to prepare ADP at certain concentrations. Phospholipids were prepared as previously described. In brief, stock solutions of each phospholipid were resuspended in chloroform, aliqouted, and chloroform was removed by a steady stream on nitrogen gas. Lipid films were placed under vacuum overnight to prepare to resuspend in MS buffer supplemented with 5 mM 2-mercaptoethanol. Phospholipid concentration was determined by phosphorus analysis.

A further test concerns the target T2, AmtB–GlnK complex (Escherichia coli, UniProt P69681).
T2 construct: pelB signal peptide (N, cleaved yes); 10x His-tag (N, cleaved yes); made in house; host or cells: AmtB: Escherichia coli C41(DE3), pET15b; stGlnK: Escherichia coli ArcticExpress (DE3) RIL, pET28b
The experiment in a line: Native MS lipid titration, lipid binding to AmtB–GlnK (equilibrium-coupled binding model). The following applies: 50 µM ADP, 298 K. The procedure:
as §1

The next test addresses T3, AmtB–GlnK interaction (Escherichia coli, UniProt P69681).
T3 construct: pelB signal peptide (N, cleaved yes); 10x His-tag (N, cleaved yes); made in house; host or cells: AmtB: Escherichia coli C41(DE3), pET15b; stGlnK: Escherichia coli ArcticExpress (DE3) RIL, pET28b
The experiment in a line: Native MS lipid titration, GlnK binding to apo or lipid-bound AmtB; coupling factors (allosteric modulation). The following applies: for Kd: 50 µM ADP, 298 K. The procedure: as §1

For test [1], the target named is T4, ammonium channel (AmtB) from Escherichia coli (Escherichia coli, UniProt P69681 23-428).
T4 construct: Ammonium channel AmtB, Escherichia coli, wild-type; Expressed as pelB signal peptide - 10x His - MBP - TEV site - AmtB from pET15b; tagless after TEV cleavage; also called ammonia channel; AmtB wild-type; source: E. coli C41(DE3), purified (membranes extracted with octyl glucoside, HisTrap, TEV cleavage, reverse HisTrap); for native MS co-purified with stGlnK (StrepTrap, Superdex 200 Increase); …
T4 sequence: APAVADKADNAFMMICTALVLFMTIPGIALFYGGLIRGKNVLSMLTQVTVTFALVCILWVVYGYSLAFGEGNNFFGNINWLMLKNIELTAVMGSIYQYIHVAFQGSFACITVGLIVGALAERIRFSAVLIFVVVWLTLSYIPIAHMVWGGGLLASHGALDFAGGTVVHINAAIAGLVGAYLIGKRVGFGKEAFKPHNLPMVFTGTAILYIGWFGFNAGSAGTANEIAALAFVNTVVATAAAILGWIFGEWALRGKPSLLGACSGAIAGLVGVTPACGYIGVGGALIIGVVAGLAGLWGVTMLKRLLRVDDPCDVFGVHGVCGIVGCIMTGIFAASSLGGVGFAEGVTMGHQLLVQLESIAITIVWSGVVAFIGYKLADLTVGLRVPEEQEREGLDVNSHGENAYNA
The experiment in a line: native MS; AmtB-GlnK at 2 uM titrated with POPA; 200 mM ammonium acetate pH 7.4, 0.5% C8E4, 50 uM ADP, 298 K; global fit of the equilibrium-coupled AmtB-GlnK-lipid binding model; apparent constants. The settings on record: both partners purified.

The target of test [2] is T4, ammonium channel (AmtB) from …. The experiment in a line: native MS; AmtB-GlnK at 2 uM titrated with POPC; 200 mM ammonium acetate pH 7.4, 0.5% C8E4, 50 uM ADP, 298 K; global fit of the equilibrium-coupled AmtB-GlnK-lipid binding model; apparent constants. The following applies: both partners purified.
The target is the same in test [3]. The experiment in a line: native MS; AmtB-GlnK at 2 uM titrated with POPE; 200 mM ammonium acetate pH 7.4, 0.5% C8E4, 50 uM ADP, 298 K; global fit of the equilibrium-coupled AmtB-GlnK-lipid binding model; apparent constants. The settings on record: both partners purified.
For test [4] the target is unchanged. The experiment in a line: native MS; AmtB-GlnK at 2 uM titrated with POPG; 200 mM ammonium acetate pH 7.4, 0.5% C8E4, 50 uM ADP, 298 K; global fit of the equilibrium-coupled AmtB-GlnK-lipid binding model; apparent constants. The settings on record: both partners purified.
For test [5] the target is unchanged. The experiment in a line: native MS; AmtB-GlnK at 2 uM titrated with POPS; 200 mM ammonium acetate pH 7.4, 0.5% C8E4, 50 uM ADP, 298 K; global fit of the equilibrium-coupled AmtB-GlnK-lipid binding model; apparent constants. The following applies: both partners purified.
The target is the same in test [6]. The experiment in a line: native MS; AmtB-GlnK at 2 uM titrated with DLPG (12:0); 200 mM ammonium acetate pH 7.4, 0.5% C8E4, 50 uM ADP; global fit of the equilibrium-coupled AmtB-GlnK-lipid binding model; apparent constants. The settings on record: both partners purified.
The target is the same in test [7]. The experiment in a line: native MS; AmtB-GlnK at 2 uM titrated with DMPG (14:0); 200 mM ammonium acetate pH 7.4, 0.5% C8E4, 50 uM ADP; global fit of the equilibrium-coupled AmtB-GlnK-lipid binding model; apparent constants. The settings on record: both partners purified.
For test [8] the target is unchanged. The experiment in a line: native MS; AmtB-GlnK at 2 uM titrated with DPPG (16:0); 200 mM ammonium acetate pH 7.4, 0.5% C8E4, 50 uM ADP; global fit of the equilibrium-coupled AmtB-GlnK-lipid binding model; apparent constants. The following applies: both partners purified.
The target is the same in test [9]. The experiment in a line: native MS; AmtB-GlnK at 2 uM titrated with DOPE (cis, 18:1); 200 mM ammonium acetate pH 7.4, 0.5% C8E4, 50 uM ADP; global fit of the equilibrium-coupled AmtB-GlnK-lipid binding model; apparent constants. The settings on record: both partners purified.
The target is the same in test [10]. The experiment in a line: native MS; AmtB-GlnK at 2 uM titrated with DOPE (trans, 18:1); 200 mM ammonium acetate pH 7.4, 0.5% C8E4, 50 uM ADP; global fit of the equilibrium-coupled AmtB-GlnK-lipid binding model; apparent constants. The following applies: both partners purified.
The target is the same in test [11]. The experiment in a line: native MS; AmtB-GlnK at 2 uM titrated with SOPE (18:0-18:1, cis); 200 mM ammonium acetate pH 7.4, 0.5% C8E4, 50 uM ADP; global fit of the equilibrium-coupled AmtB-GlnK-lipid binding model; apparent constants. The following applies: both partners purified.
Test [12] shares this target. The experiment in a line: native MS; AmtB-GlnK at 2 uM titrated with TOCDL (cardiolipin); 200 mM ammonium acetate pH 7.4, 0.5% C8E4, 50 uM ADP, 298 K; global fit of the equilibrium-coupled AmtB-GlnK-lipid binding model; apparent constants. The following applies: both partners purified.
The target of test [13] is T5, ammonium channel (AmtB) from Escherichia coli, wild-type, tagless (E. coli, UniProt P69681 23-428).
T5 construct: AmtB, ammonium channel, Escherichia coli, wild-type; expressed behind a pelB secretion signal, 10x His-tag, MBP and a TEV site, all removed; also called ammonia channel; source: E. coli C41(DE3), extracted from membranes with octyl glucoside, purified (HisTrap, TEV cleavage, reverse HisTrap); not shown: 10x His-tag, N-terminal, cleaved
T5 sequence: T4 sequence
The experiment in a line: native MS; ADP titration series; at and above 100 uM ADP (asymptote); AmtB-GlnK 2 uM, 200 mM ammonium acetate pH 7.4, 0.5% C8E4. The settings on record: both partners purified.

Take `Nc1ncnc2c1ncn2[C@@H]1O[C@H](COP(=O)(O)OP(=O)(O)O)[C@@H](O)[C@H]1O` [ADP, adenosine diphosphate]: the Kd on GlnK (read-out: KD for GlnK binding the first ADP molecule) is 20000 nM; on GlnK (read-out: KD for GlnK binding the second ADP molecule) it was 56000 nM; on GlnK (read-out: KD for GlnK binding the third ADP molecule) it was 100000 nM.
Regarding `CCCCCCCC/C=C\CCCCCCCC(=O)OC[C@H](COP(=O)(O)OCC(O)COP(=O)(O)OC[C@@H](COC(=O)CCCCCCC/C=C\CCCCCCCC)OC(=O)CCCCCCC/C=C\CCCCCCCC)OC(=O)CCCCCCC/C=C\CCCCCCCC` (stereo partly shown) [TOCDL, 1,1′,2,2′-tetraoleoyl-cardiolipin], the Kd at AmtB (read-out: KD,AL1, first lipid binding to AmtB) amounted to 19900 ± 1650 nM; on AmtB (read-out: KD,AL2, second lipid binding to AmtB), 30200 ± 2050 nM; on AmtB (read-out: KD,AL3, third lipid binding to AmtB) it was 33100 ± 6010 nM; at AmtB–GlnK complex (read-out: KD,AGL1, first lipid binding to AmtB–GlnK), 17000 ± 170 nM; on AmtB–GlnK complex (read-out: KD,AGL2, second lipid binding to AmtB–GlnK), 29300 ± 1420 nM; on AmtB–GlnK complex (read-out: KD,AGL3, third lipid binding to AmtB–GlnK), 29500 ± 1680 nM. Further, the Kd turned out to be 517 ± 31.2 nM on AmtB–GlnK interaction (read-out: KD,AG, GlnK binding apo AmtB, from global fit of the titration with the named lipid); 443 ± 68.9 nM on AmtB–GlnK interaction (read-out: KD,AL2G, GlnK binding AmtB bound to 2 lipids); 414 ± 77.6 nM on AmtB–GlnK interaction (read-out: KD,AL3G, GlnK binding AmtB bound to 3 lipids); 450 ± 56.1 nM on AmtB–GlnK interaction (read-out: KD,ALG, GlnK binding AmtB bound to 1 lipid). Besides, the “Coupling factor a1” value at AmtB–GlnK interaction (first bound lipid) was 1.17 ± 0.09. In addition, the “allosteric modulation of AmtB–GlnK (from coupling factors)” value on AmtB–GlnK interaction (result in words) is listed as “neutral allosteric modulation”. Further, on AmtB–GlnK interaction (result in words), the “effect of lipid-binding events on K D,ALnG” value was “little effect on K D,ALnG”. Further, the “Coupling factor a2” value on AmtB–GlnK interaction (second bound lipid) worked out at 1.03 ± 0.06. Moreover, the “Coupling factor a3” value at AmtB–GlnK interaction (third bound lipid) is given as 1.11 ± 0.15.

B1: Strep-tag II-tagged GlnK (stGlnK), Y51F (natural protein, Escherichia coli)
chain: MKLVTVIIKPFKLEDVREALSSIGIQGLTVTEVKGFGRQKGHAELYRGAEFSVNFLPKVKIDVAIADDQLDEVIDIVSKAAYTGKIGDGKIFVAELQRVIRIRTGEADEAAL
notes: Nitrogen regulatory protein GlnK, Escherichia coli; Expressed from pET28b; Y51F prevents uridylylation by GlnD; source: E. coli ArcticExpress (DE3) RIL, purified (StrepTrap HP, Superdex 75)
For B1, the Kd in test [1] came to 517 nM; in [2] it was 486 nM; in [3] it was 504 nM; in [4], 540 nM; in test [5] it was 500 nM; in test [6] it was 522 nM. Also, the Kd came out at 551 nM in test [7]; 521 nM in test [8]; 517 nM in test [9]; 556 nM in test [10]; 528 nM in [11]; 517 nM in [12].

B2: Strep-tag II-tagged GlnK (stGlnK), Y51F (natural protein, E. coli)
chain: B1 chain
notes: GlnK, nitrogen regulatory protein (PII-2), Escherichia coli, with the point mutation Y51F that prevents uridylylation by GlnD; source: E. coli ArcticExpress (DE3) RIL, purified (StrepTrap, Superdex 75)
B2 displayed a Kd in [13] of around 80 nM.
